In brackets after ≈: the same amount, converted by molar mass. Several values for one entry are separate records, joined by “and”; a condition that tells them apart may be missing. Equal values may be shown once. Read-outs that look alike come from different tables or passages of the source.
Legend:
[1] = first dissolution test in DMSO or water; conditions: for Total volume of DMSO for dissolving the p-TSA derivatives / Total volume of water for dissolving the p-TSA derivatives: first dissolution test, amount for a 3M solution in 0.5 mL, up to 15000 μL; for solubility: thermodynamic from solid
Method: Each of the powder of p-TSA derivatives was duplicated, placed in each 15 mL centrifuge tube, followed by adding 200 μL DMSO or 200 μL water and shaking for 10 to 20 seconds for dissolution observation. If the powder was not dissolved, additional DMSO or water was added, and then the mixture was shaken. The tube was left to stand for 10 minutes for observation if the powder was still not dissolved after adding 1 mL DMSO or 1 mL water. If the powder was still not dissolved after adding 5 mL DMSO or 5 mL water, additional 1 mL DMSO or 1 mL water was added, and then the mixture was shaken for 30 seconds. If the powder was still not dissolved after adding 10 mL DMSO or 10 mL water, the tube was left to stand for 12 to 16 hours and observed on the next day. DMSO or water was added into the tube having the undissolved p-TSA derivatives up to 15 mL, followed by shaking for 30 minutes for observation.

[2] = test system: human non-small-cell lung cancer cell lines H460; assay: SRB growth inhibition of lung cancer cells; assay type: cell-based; conditions: 48 hours, SRB
Method: (§1) After letting to stand for 10 minutes at room temperature, the supernatant of each well was removed, and each well was washed with 200 μL H2O once. […] Each of the plates was then placed in the laminar flow cabinet for 1 hour for air dry. 50 μL 0.4% sulforhodamine B (SRB) dye was added into each well of the 96-well plate. […] Each of the plates was then placed in the laminar flow cabinet for 40 minutes to 1 hour for air dry. 1×Tris-Base solution with pH 7.0 to 7.4 was added to each well of the 96-well plate to dissolve the protein complex formed in the bottom of each well, followed by tapping the 96-well plate, allowing the complex in each well to be dissolved uniformly. Absorption of each well under 515 nm was read. […] Each of the experimental group was performed in triplet.

[3] = test system: human liver cancer cell lines Hep3B; assay: SRB growth inhibition of liver cancer cells; assay type: cell-based; conditions: 48 hours, SRB
Method: as §1

[4] = derivative dissolved in DMSO, read-out: IC50 of H460 in DMSO
[5] = derivative dissolved in DMSO, read-out: IC50 of Hep3B in DMSO
[6] = Homo sapiens, NCI-H460, 48 h, derivative dissolved in DMSO, read-out: IC50 of H460 in DMSO
[7] = Homo sapiens, Hep3B, 48 h, derivative dissolved in DMSO, read-out: IC50 of Hep3B in DMSO
[8] = Homo sapiens, NCI-H460, 48 h, derivative dissolved in water, read-out: IC50 of H460 in water
[9] = Homo sapiens, Hep3B, 48 h, derivative dissolved in water, read-out: IC50 of Hep3B in water
[10] = DMSO, organic solvent or mixture

| Total volume of DMSO for dissolving the p-TSA derivatives ([1]; DMSO) | Total volume of water for dissolving the p-TSA derivatives ([1]; water) | IC50 [2, 4] | IC50 [3, 5] | IC50 [2, 6] | IC50 [3, 7] | IC50 [2, 8] | IC50 [3, 9] | solubility [1, 10] | solubility ([1]; water) | Structure (SMILES) |
| --- | --- | --- | --- | --- | --- | --- | --- | --- | --- | --- |
| 510 µL | insoluble in 15000 μL | 7.72 mM | > 9 mM |  |  |  |  |  |  | CC(=O)NS(=O)(=O)c1ccc(C)cc1 [PTSA001] |
| 680 µL | 500 µL | 6.11 mM | 7.5 mM |  |  | > 5 mM |  |  |  | COC(=O)NS(=O)(=O)c1ccc(C)cc1 [PTSA012] |
| 490 µL | 10000 µL |  |  | 2.61 mM | 2.65 mM | > 1 mM | > 1 mM |  |  | Cc1ccc(S(=O)(=O)NCCO)cc1 [PTSA020] |
| 500 µL | insoluble in 15000 μL |  |  | 2.89 mM | 2.65 mM |  |  |  |  | Cc1ccc(S(=O)(=O)NC[C@H](C)O)cc1 [PTSA023] |
| 515 µL | insoluble in 15000 μL |  |  | 3.22 mM | 3.83 mM |  |  |  |  | Cc1ccc(S(=O)(=O)NCC(C)O)cc1 (centres unmarked) [PTSA024] |
| 560 µL | insoluble in 15000 μL |  |  | 3.15 mM | 3.54 mM |  |  |  |  | Cc1ccc(S(=O)(=O)NC(C)CO)cc1 (centres unmarked) [PTSA025] |
| 500 µL | insoluble in 15000 μL |  |  | 3.25 mM | 3.92 mM |  |  |  |  | Cc1ccc(S(=O)(=O)N[C@@H](C)CO)cc1 [PTSA026] |
| 500 µL | insoluble in 15000 μL |  |  | 1.42 mM | 1.76 mM |  |  |  |  | Cc1ccc(S(=O)(=O)N2CCC[C@H]2CO)cc1 [PTSA033] |
| 505 µL | insoluble in 15000 μL |  |  | 1.5 mM | 1.78 mM |  |  |  |  | Cc1ccc(S(=O)(=O)N2CCCC2CO)cc1 (centres unmarked) [PTSA034] |
| 490 µL | insoluble in 15000 μL |  |  | 2.83 mM | 2.28 mM |  |  |  |  | Cc1ccc(S(=O)(=O)N2CC[C@@H](O)C2)cc1 [PTSA035] |
| 530 µL | insoluble in 15000 μL |  |  | 2.54 mM | 3.4 mM |  |  |  |  | Cc1ccc(S(=O)(=O)N2CCC(O)C2)cc1 (centres unmarked) [PTSA036] |
| 605 µL | insoluble in 15000 μL | 0.259 mM | 0.274 mM and 0.264 mM | 0.288 mM | 0.265 mM |  |  | 832 mg/mL (≈ 3660 mM) | < 50 mg/mL | Cc1ccc(S(=O)(=O)N2CC(O)C2)cc1 [PTSA037] |
| 680 µL | insoluble in 15000 μL |  |  | 1.62 mM | 1.57 mM |  |  |  |  | Cc1ccc(S(=O)(=O)N2CCNCC2)cc1 [PTSA038] |
| 475 µL | insoluble in 15000 μL | 0.406 mM | 0.413 mM | 0.431 mM | 0.329 mM |  |  | 762 mg/mL (≈ 3350 mM) | < 50 mg/mL | Cc1ccc(S(=O)(=O)NC2COC2)cc1 [PTSA040] |
| 4000 µL | insoluble in 15000 μL |  |  | > 2 mM | > 2 mM |  |  |  |  | Cc1ccc(S(=O)(=O)N2CC3(COC3)C2)cc1 [PTSA041] |
| 600 µL | insoluble in 15000 μL |  |  | 7.93 mM | 9.11 mM |  |  |  |  | Cc1ccc(S(=O)(=O)NCC(=O)O)cc1 [PTSA044] |
| 850 µL | insoluble in 15000 μL |  |  |  |  |  |  |  |  | Cc1ccc(S(=O)(=O)N2CC(=NO)C2)cc1 [PTSA070] |

Second part, the molecule before the results:

| Structure (SMILES) | Total volume of DMSO for dissolving the p-TSA derivatives ([1]; DMSO) | Total volume of water for dissolving the p-TSA derivatives ([1]; water) | IC50 [2, 4] | IC50 [3, 5] | IC50 [2, 6] | IC50 [3, 7] | IC50 [2, 8] | IC50 [3, 9] | solubility [1, 10] | solubility ([1]; water) |
| --- | --- | --- | --- | --- | --- | --- | --- | --- | --- | --- |
| NS(=O)(=O)c1ccc(C(=O)O)cc1 [PTSA004] | 960 (with pipetting) μL | insoluble in 15000 μL |  |  | 9.67 mM | > 7 mM |  |  |  |  |
| COC(=O)NS(=O)(=O)c1ccc(C)cc1 [PTSA011] | 560 µL | insoluble in 15000 μL |  |  | 5.49 mM | 4.56 mM |  |  |  |  |
| CCOC(=O)NS(=O)(=O)c1ccc(C)cc1 [PTSA014] | 610 µL | insoluble in 15000 μL |  |  | 5.82 mM | 4.59 mM |  |  |  |  |
| CCOC(=O)NS(=O)(=O)c1ccc(C)cc1 [PTSA015] | 815 µL | 500 µL | 4.79 mM | 5.77 mM |  |  | 4.96 mM |  |  |  |
| Cc1ccc(S(=O)(=O)NC(=O)NS(=O)(=O)c2ccc(C)cc2)cc1 [PTSA017] | 2000 µL | insoluble in 15000 μL |  |  | > 3 mM | > 3 mM |  |  |  |  |
| Cc1ccc(S(=O)(=O)NC(=O)NS(=O)(=O)c2ccc(C)cc2)cc1 [PTSA018] | 2000 µL | 2500 µL | > 3 mM | > 3 mM |  |  | > 3 mM | > 3 mM |  |  |
| Cc1ccc(S(=O)(=O)NCCCO)cc1 [PTSA021] | 495 µL | insoluble in 15000 μL |  |  | 2.45 mM | 2.81 mM |  |  |  |  |
| Cc1ccc(S(=O)(=O)NCCOCCO)cc1 [PTSA022] | 505 µL | insoluble in 15000 μL |  |  | 3.65 mM | 4.72 mM |  |  |  |  |
| Cc1ccc(S(=O)(=O)NC[C@@H](O)CO)cc1 [PTSA027] | 575 µL | insoluble in 15000 μL |  |  | 5.35 mM | 4.1 mM |  |  |  |  |
| Cc1ccc(S(=O)(=O)NCC(O)CO)cc1 (centres unmarked) [PTSA028] | 620 µL | insoluble in 15000 μL |  |  | 5.53 mM | 5.36 mM |  |  |  |  |
| Cc1ccc(S(=O)(=O)NC(CO)CO)cc1 [PTSA029] | 500 µL | insoluble in 15000 μL |  |  | 1.97 mM | 3.05 mM |  |  |  |  |
| Cc1ccc(S(=O)(=O)NC(C)(CO)CO)cc1 [PTSA030] | 695 µL | insoluble in 15000 μL |  |  | 3.3 mM | 4.31 mM |  |  |  |  |
| Cc1ccc(S(=O)(=O)NC(CO)(CO)CO)cc1 [PTSA031] | 700 µL | 10000 µL |  |  | 3.31 mM | 4.21 mM | > 1 mM | > 1 mM |  |  |
| Cc1ccc(S(=O)(=O)NCC2(CO)COC2)cc1 [PTSA039] | 500 µL | insoluble in 15000 μL |  |  | 4.16 mM | 3.74 mM |  |  |  |  |
| COCCNS(=O)(=O)c1ccc(C)cc1 [PTSA042] | 475 µL | insoluble in 15000 μL |  |  | 2.49 mM | 2.75 mM |  |  |  |  |
| COCCCNS(=O)(=O)c1ccc(C)cc1 [PTSA043] | 505 µL | insoluble in 15000 μL |  |  | 1.61 mM | 1.84 mM |  |  |  |  |
| Cc1ccc(S(=O)(=O)N[C@@H](C)C(=O)O)cc1 [PTSA045] | 2000 µL | insoluble in 15000 μL |  |  | > 3 mM | > 3 mM |  |  |  |  |
| Cc1ccc(S(=O)(=O)NCC(F)(F)F)cc1 [PTSA050] | 590 µL | insoluble in 15000 μL |  |  |  |  |  |  |  |  |

Source: US10485773B2, “Benzenesulfonamide derivatives and method for treating cancer” (GONGWIN BIOPHARM HOLDINGS CO., LTD., priority 2016, dated 2019)
